Where a name gives a salt, the structure may show the parent alone.
Assays:
[1] = cited from earlier work
[2] = Dynamic vapor sorption (water sorption/desorption); type: physicochemical; conditions: for hygroscopicity (in words): DVS; for moisture gain / water uptake: 85% relative humidity
Procedure: Water sorption/desorption profiles: Water sorption/desorption profiles of the Type II ethylenediamine salt are shown in FIG. 6. […] A similar water sorption/desorption study was carried out on the Type I ethylenediamine salt (FIG. 7). […] The sorption of water caused a form change in the Type I ethylenediamine salt which was observed using XRPD analysis.
Vapor sorption/desorption was carried out using Surface Measurement Systems DVS-HT. Samples were placed into a foil insert placed on a sample pan. […] The equilibrium point of each step was reached when 0.002% of weight change was reached.

[3] = DSC and TGA thermal events / weight loss at elevated temperature; type: physicochemical
Procedure: Weight loss at elevated temperature: Differences in thermal characteristics between the Type I and Type II ethylenediamine salts were also observed using differential scanning calorimetry (DSC), thermal gravimetric analysis (TGA) and dynamic vapor sorption (DVS) studies.
DSC and TGA thermograms of the Type II ethylenediamine salt (FIG. 4) indicate minimal loss of residual solvent up to 100° C. (about 0.16% which is controllable by more thorough drying). […] A first endothermic peak appears at about 192° C. with about 5.6% of total weight loss in TGA at corresponding temperature region (140° C. to 210° C.). This weight loss corresponds roughly to the theoretical weight loss (5.99 wt %) of ethylenediamine from the ethylenediamine salt of the compound of formula (I) (which contains 0.50 molar equivalents of ethylenediamine). […] The following endothermic peak is shown at 232° C. which is similar to the melting point of the free-acid form of the compound of formula (I).
There is about 3.8% weight loss at 20° C. to 70° C., which corresponds to the loss of water. A major endotherm at 118° C. to 134° C. corresponds to the melting of the ethylenediamine salt with volatilization, corresponding to the loss of ethanol and some ethylenediamine (about 4.4%). Further loss of ethylenediamine occurs at about 147° C. to 160° C. Above 165° C., melting and decomposition of the free-acid of the compound of formula (I) take place.
DSC was carried out using TA Instruments Q1000 Differential Scanning Calorimeter. Samples were placed in sealed aluminum pans for analysis with an empty aluminum pan as the reference. A heating rate of 10° C./min was employed over a temperature range from 20° C. to 300° C.
TGA was carried out using TA Instruments Q500 Thermogravimetric analyzer. Samples were placed into an platinum sample pan. A heating rate of 10° C./min was employed over a temperature range from 25° C. to 300° C.

[4] = XRPD analysis of crystallinity after heat-treatment; type: physicochemical; conditions: for change in crystallinity (XRPD) as a result of heat treatment: heated at 80° C. under reduced pressure for 15 hours, vs sample kept at about 25° and atmospheric pressure
Procedure: Effect of heat-treatment on crystallinity: Applicants carried out an XRPD analysis of samples of the Type I and Type II ethylenediamine salts exposed to elevated temperature (80° C.), and the results are shown in FIG. 3. In FIG. 3, the top pattern A-1 was obtained on a sample of the Type II ethylenediamine salt maintained at atmospheric pressure and at about 25° prior to measuring the XRPD reflections. The pattern A-2 was obtained from a sample of the Type II ethylenediamine salt which was heated at 80° C. under reduced pressure for 15 hours prior to measuring the XRPD reflections.
The bottom pattern B-1 was obtained on a sample of the Type I ethylenediamine salt which was maintained at atmospheric pressure and at about 25° prior to measuring the XRPD reflections. The pattern B-2 was obtained from a sample of the Type I ethylenediamine salt which was heated at 80° C. under reduced pressure for 15 hours prior to measuring the XRPD reflections.
XRPD data were recorded with a Rigaku Miniflex II powder diffractometer (The Woodlands, Tex.). The radiation was CuKa (30 kV, 15 mA). Data were collected at 25° C. from 3 to 35 degrees 2θ at 0.02 degrees per step and 1.67 sec per step. Samples were prepared on Silicon (510) specimen holders as a thin layer of powdered material without solvent.

Row | hygroscopicity (in words) ([2]; 25° C.) | water uptake ([2]; 70% relative humidity, 25° C.) | moisture gain / water uptake ([2]; 25° C.) | effect of water sorption on solid form (XRPD) ([2]; after sorption of water) | thermal behavior in DSC and TGA thermograms [3] | weight loss (loss of water) ([3]; 20° C. to 70° C.) | Onset of event: Loss of water ([3]; DSC/TGA, 10° C./min) | Onset of event: Melting and loss of ethanol and ethylenediamine ([3]; DSC/TGA, 10° C./min) | Onset of event: Melting of the free-acid of compound of formula (I) ([3]; DSC/TGA, 10° C./min) | weight loss (loss of ethanol and some ethylenediamine) ([3]; major endotherm at 118° C. to 134° C.) | proneness to hydration compared with the other polymorph [2] | total weight loss in TGA (loss of ethylenediamine) ([3]; 140° C. to 210° C., first endothermic peak at about 192° C.) | Onset of event: Melting and loss of ethylenediame ([3]; DSC/TGA, 10° C./min) | loss of residual solvent (TGA) ([3]; up to 100° C.) | thermal stability compared with the other polymorph (XRPD study) ([4]; 80° C. heat treatment) | Compound | weight loss in thermogravimetric analysis (attributed to loss of ethanol) ([1]; from 125° C. to 150° C.) | weight loss in thermogravimetric analysis ([1]; from about 30° C. to about 75° C.) | change in crystallinity (XRPD) as a result of heat treatment [4]
1 | significant moisture sorption | ~6% | ~7% | form change | unstable thermal behavior | about 3.8% | 30 °C | 120 °C | 210 °C | about 4.4% | – | – | – | – | – | CN(C)c1nc(Cc2ccc(NC(=O)c3ccc(C(F)(F)F)cc3)cc2)nc(N(C)C)c1CC(=O)O [Type I ethylenediamine salt, ethylenediamine salt of [4,6-bis(dimethylamino)-2-(4-{[4-(trifluoromethyl)benzoyl]amino}benzyl)pyrimidin-5-yl]acetic acid] | larger weight loss | slight weight loss | significant change in the crystallinity
2 | non-hygroscopic | – | about 0.08% | – | – | – | – | – | 225 °C | – | less prone to hydration | about 5.6% | 160 °C | about 0.16% | more thermally stable | CN(C)c1nc(Cc2ccc(NC(=O)c3ccc(C(F)(F)F)cc3)cc2)nc(N(C)C)c1CC(=O)O [Type II ethylenediamine salt, ethylenediamine salt of [4,6-bis(dimethylamino)-2-(4-{[4-(trifluoromethyl)benzoyl]amino}benzyl)pyrimidin-5-yl]acetic acid] | – | – | no noticeable change in the crystallinity

Reference: patent US20120142715A1, “POLYMORPH OF [4,6-BIS(DIMETHYLAMINO)-2-(4-BENZYL)PYRIMIDIN-5-YL]” (BOEHRINGER INGELHEIM INTERNATIONAL GMBH, priority 2009, published 2012)
